Test results from patent US4639466A, “3',6-diisopentenyl-2',4'-dihydroxy-5,7-dimethoxy-isoflavan and related compounds useful as anxiolytic agents and avermectin antidotes” (Merck & Co., Inc., priority 1984, dated 1987).
Where two headings read alike, the source gives them in different places. One block for each compound: values may come before it.

Experiments:
[1] = system: C. elegans; assay: C. elegans motility assay (effect on avermectin activity, % active worms); assay type: in vivo
Text: 1. The C. elegans motility assay:
The procedures for the C. elegans motility assay is described in S. S. Pong et al., J. NuroChem. 34, 351-358, 1980.

[2] = system: benzodiazepine receptors; assay: Benzodiazepine receptor binding assay (BARIN; effect on ^3 H-diazepam binding)
[3] = system: benzodiazepine receptors; details: known from prior art; cited from earlier work

effect on benzodiazepine binding [2]: stimulate the benzodiazepine-binding
EC50 ([2]; active compound (12 mg, k'=8) isolated from CH2 Cl2 extract of G. uralensis by HPLC): 2 to 3 µg/mL
EC50 for stimulation of benzodiazepine-binding ([2]; stimulation of binding): 3 µg/mL
Compound: COc1cc2c(c(OC)c1CC=C(C)C)CC(c1ccc(O)c(CC=C(C)C)c1O)CO2 (centres unmarked) [3',6-diisopentenyl-2',4'-dihydroxy-5,7-dimethoxyisoflavan]
antagonism of avermectin in the C. elegans motility assay ([1]; in vivo): potent antagonist of avermectin
% active worms ([1]; isoflavan 5 μg/ml, avermectin 0 μg/ml): 97%
% active worms ([1]; isoflavan 5 μg/ml, avermectin 0.156 μg/ml): 60%
% active worms ([1]; isoflavan 5 μg/ml, avermectin 0.313 μg/ml): 60%
% active worms ([1]; isoflavan 5 μg/ml, avermectin 0.625 μg/ml): 77%
% active worms ([1]; isoflavan 25 μg/ml, avermectin 0 μg/ml): 95%
% active worms ([1]; isoflavan 25 μg/ml, avermectin 0.156 μg/ml): 88%
% active worms ([1]; isoflavan 25 μg/ml, avermectin 0.313 μg/ml): 65%
% active worms ([1]; isoflavan 25 μg/ml, avermectin 0.625 μg/ml): 91%
blocking the highest dose of avermectin ([1]; lowest dose level 5 μg/ml, avermectin 0.625 μg/ml): almost fully effective

Compound: CC[C@H](C)[C@H]1O[C@]2(C=C[C@@H]1C)C[C@@H]1C[C@@H](C/C=C(\C)[C@@H](O[C@H]3C[C@H](OC)[C@@H](O[C@H]4C[C@H](OC)[C@@H](O)[C@H](C)O4)[C@H](C)O3)[C@@H](C)/C=C/C=C3\CO[C@@H]4[C@H](O)C(C)=C[C@@H](C(=O)O1)[C@]34O)O2 [avermectin]
% active worms ([1]; isoflavan 0 μg/ml, avermectin 0.156 μg/ml (avermectin alone)): 85%
% active worms ([1]; isoflavan 0 μg/ml, avermectin 0.313 μg/ml (avermectin alone)): 20%
% active worms ([1]; isoflavan 0 μg/ml, avermectin 0.625 μg/ml (avermectin alone)): 4%

Compound: CCCCNc1c(C(=O)OCC)c(C)nc2c1cnn2CC [tracazolate]
effect on benzodiazepine binding [3]: stimulates benzodiazepine binding
